Data reported in patent publication US20200009168A1, “MICROBIOME REGULATORS AND RELATED USES THEREOF” (KALEIDO BIOSCIENCES, INC., priority 2015, published 2020).

What was measured:
Format in all cases: cell-based
[1] = test system: Bacteroides caccae ATCC 43185 "BCA.26"; assay: Sugar-supported growth of commensal bacteria, BCA.26; settings: 0.5% w/v sugar, 37° C., 18-24 hours, anaerobic; OD600 divided by OD600 with 0.5% w/v dextrose
Protocol: (§1) An in vitro assay was performed to assess the ability of various bacterial strains, including commensals of the gastrointestinal tract, to utilize different sugars as growth substrates. This assay was designed to assess the ability of selected natural monosaccharides, disaccharides and synthetic sugars to promote the growth of microbiota associated with a healthy state. Bacterial strains were handled at all steps in an anaerobic chamber (AS-580, Anaerobe Systems) featuring a palladium catalyst. The chamber was initially made anaerobic by purging with an anaerobic gas mixture of 5% hydrogen, 5% carbon dioxide and 90% nitrogen and subsequently maintained in an anaerobic state using this same anaerobic gas mixture. Anaerobicity of the chamber was confirmed daily using Oxoid anaerobic indicator strips that change color in the presence of oxygen. All culture media, assay plates, other reagents and plastic consumables were pre-reduced in the anaerobic chamber for 24-48 hours prior to contact with bacteria. Sugars were prepared at 5% w/v in water, filter-sterilized and added to Costar 3370 assay plates for a final concentration of 0.5% w/v in the assay, with each microbiome regulator assayed in two non-adjacent wells and dextrose and water supplied as positive and negative controls.
(§2) Bacterial isolates were obtained from the American Type Culture Collection (ATCC) and Leibniz Institute DSMZ-German Institute of Microorganisms and Cell Cultures (DSMZ). Cultures of the Bacteroidetes Bacteroides caccae ATCC 43185 “BCA.26”, Bacteroides thetaiotaomicron ATCC 29741 “BTH.8”, Bacteroides cellulosilyticus DSM 14838 “BCE.71”, Parabacteroides distasonis ATCC 8503 “PDI.6” and Prevotella copri DSM 18205 “PCO.72”; the Clostridiales Clostridium scindens ATCC 35704 “CSC.32”, Dorea formicigenerans ATCC 27755 “DFO.36” and Ruminococcus obeum ATCC 29714 “ROB.74”; and the Bifidobacteria Bifidobacterium longum ATCC 15707 “BLO.16” and Bifidobacterium longum DSM 20088 “BLO.83”, were grown anaerobically in Chopped Meat Glucose broth (CMG, Anaerobe Systems), a pre-reduced enriched medium including lean ground beef, enzymatic digest of casein, yeast extract, potassium phosphate, dextrose, cysteine, hemin and Vitamin K1, for 18-48 hours at 37° C. Inocula were prepared by determining the optical density of each culture at […] (OD600) in a Costar 3370 polystyrene 96-well flat-bottom assay plate using a Biotek Synergy 2 plate reader with Gen5 2.0 All-In-One Microplate Reader Software according to manufacturer's protocol, and diluting the cells to OD600 0.01 final in defined and semi-defined media that were prepared without sugars. D. formicigenerans, P. distasonis and B. longum isolates were tested in 900 mg/L sodium chloride, 26 mg/L calcium chloride dihydrate, 20 mg/L magnesium chloride hexahydrate, 10 mg/L manganese chloride tetrahydrate, 40 mg/L ammonium sulfate, 4 mg/L iron sulfate heptahydrate, 1 mg/L cobalt chloride hexahydrate, 300 mg/L potassium phosphate dibasic, 1.5 g/L sodium phosphate dibasic, 5 g/L sodium bicarbonate, 0.125 mg/L biotin, 1 mg/L pyridoxine, […], 75 mg/L histidine, 75 mg/L glycine, 75 mg/L tryptophan, 150 mg/L arginine, 150 mg/L methionine, 150 mg/L threonine, 225 mg/L valine, 225 mg/L isoleucine, 300 mg/L leucine, 400 mg/L cysteine, and 450 mg/L proline (Theriot C M et al. Nat Commun. 2014; 5:3114), supplemented with 0-3.5% (v/v) CMG. B. thetaiotaomicron, B. caccae and B. cellulosyliticus were tested in 100 mM potassium phosphate buffer (pH 7.2), 15 mM sodium chloride, 8.5 mM ammonium sulfate, 4 mM L-cysteine, 1.9 μM hematin, 200 μM L-histidine, 100 μM magnesium chloride, 1.4 μM iron sulfate heptahydrate, 50 μM calcium chloride, 1 μg/mL vitamin K3 and 5 ng/mL vitamin B12 (Martens E C et al. Cell Host & Microbe 2008; 4, 447-457). […]

[2] = test system: Bacteroides cellulosilyticus DSM 14838 "BCE.71"; assay: Sugar-supported growth of commensal bacteria, BCE.71; settings: 0.5% w/v sugar, 37° C., 18-24 hours, anaerobic; OD600 divided by OD600 with 0.5% w/v dextrose
Protocol: as §1, §2

[3] = test system: Bacteroides thetaiotaomicron ATCC 29741 "BTH.8"; assay: Sugar-supported growth of commensal bacteria, BTH.8; settings: 0.5% w/v sugar, 37° C., 18-24 hours, anaerobic; OD600 divided by OD600 with 0.5% w/v dextrose
Protocol: as §1, §2

[4] = test system: Parabacteroides distasonis ATCC 8503 "PDI.6"; assay: Sugar-supported growth of commensal bacteria, PDI.6; settings: 0.5% w/v sugar, 37° C., 18-24 hours, anaerobic; OD600 divided by OD600 with 0.5% w/v dextrose
Protocol: as §1, §2

[5] = test system: Prevotella copri DSM 18205 "PCO.72"; assay: Sugar-supported growth of commensal bacteria, PCO.72; settings: 0.5% w/v sugar, 37° C., 18-24 hours, anaerobic; OD600 divided by OD600 with 0.5% w/v dextrose
Protocol: as §1, §2

[6] = test system: Clostridium scindens ATCC 35704 "CSC.32"; assay: Sugar-supported growth of commensal bacteria, CSC.32; settings: 0.5% w/v sugar, 37° C., 18-24 hours, anaerobic; OD600 divided by OD600 with 0.5% w/v dextrose
Protocol: as §1, §2

panel of 10 commensals = assay: Sugar-supported growth, whole panel of 10 commensals; settings: 0.5% w/v sugar, summary in words
Protocol: as §1, §2

[7] = test system: Ruminococcus obeum ATCC 29714 "ROB.74"; assay: Sugar-supported growth of commensal bacteria, ROB.74; settings: 0.5% w/v sugar, 37° C., 18-24 hours, anaerobic; OD600 divided by OD600 with 0.5% w/v dextrose
Protocol: as §1, §2

[8] = test system: Dorea formicigenerans ATCC 27755 "DFO.36"; assay: Sugar-supported growth of commensal bacteria, DFO.36; settings: 0.5% w/v sugar, 37° C., 18-24 hours, anaerobic; OD600 divided by OD600 with 0.5% w/v dextrose
Protocol: as §1, §2

[9] = test system: Bifidobacterium longum ATCC 15707 "BLO.16"; assay: Sugar-supported growth of commensal bacteria, BLO.16; settings: 0.5% w/v sugar, 37° C., 18-24 hours, anaerobic; OD600 divided by OD600 with 0.5% w/v dextrose
Protocol: as §1, §2

[10] = test system: Bifidobacterium longum DSM 20088 "BLO.83"; assay: Sugar-supported growth of commensal bacteria, BLO.83; settings: 0.5% w/v sugar, 37° C., 18-24 hours, anaerobic; OD600 divided by OD600 with 0.5% w/v dextrose
Protocol: as §1
Bacterial isolates were obtained from the American Type Culture Collection (ATCC) and Leibniz Institute DSMZ-German Institute of Microorganisms and Cell Cultures (DSMZ). Cultures of the Bacteroidetes Bacteroides caccae ATCC 43185 “BCA.26”, Bacteroides thetaiotaomicron ATCC 29741 “BTH.8”, Bacteroides cellulosilyticus DSM 14838 “BCE.71”, Parabacteroides distasonis ATCC 8503 “PDI.6” and Prevotella copri DSM 18205 “PCO.72”; the Clostridiales Clostridium scindens ATCC 35704 “CSC.32”, Dorea formicigenerans ATCC 27755 “DFO.36” and Ruminococcus obeum ATCC 29714 “ROB.74”; and the Bifidobacteria Bifidobacterium longum ATCC 15707 “BLO.16” and Bifidobacterium longum DSM 20088 “BLO.83”, were grown anaerobically in Chopped Meat Glucose broth (CMG, Anaerobe Systems), a pre-reduced enriched medium including lean ground beef, enzymatic digest of casein, yeast extract, potassium phosphate, dextrose, cysteine, hemin and Vitamin K1, for 18-48 hours at 37° C. Inocula were prepared by determining the optical density of each culture at […] (OD600) in a Costar 3370 polystyrene 96-well flat-bottom assay plate using a Biotek Synergy 2 plate reader with Gen5 2.0 All-In-One Microplate Reader Software according to manufacturer's protocol, and diluting the cells to OD600 0.01 final in defined and semi-defined media that were prepared without sugars. […]

| SMILES | Average Normalized Growth (NGV), BCA.26 [1] | Average Normalized Growth (NGV), BCE.71 [2] | Average Normalized Growth (NGV), BTH.8 [3] | Average Normalized Growth (NGV), PDI.6 [4] | Average Normalized Growth (NGV), PCO.72 [5] | Average Normalized Growth (NGV), CSC.32 [6] | taxa or strains of the commensal panel whose growth was supported (panel of 10 commensals) | Average Normalized Growth (NGV), ROB.74 [7] | Average Normalized Growth (NGV), DFO.36 [8] | Average Normalized Growth (NGV), BLO.16 [9] | Average Normalized Growth (NGV), BLO.83 [10] |
| --- | --- | --- | --- | --- | --- | --- | --- | --- | --- | --- | --- |
| OC[C@H]1O[C@@H](O[C@@H]2[C@@H](CO)OC(O)(CO)[C@H]2O)[C@H](O)[C@@H](O)[C@H]1O (mixture of isomers) [lactulose] | ++ (0.6-1) | ++ (0.6-1) | − (<0.2) | + (0.2-0.6) | ++ (0.6-1) | − (<0.2) | supported growth of some strains from the taxa Bacteroidetes and Bifidobacteria | – | – | – | – |
| O=C[C@@H](O)[C@H](O)[C@H](O)CO [D (−) arabinose] | ++ (0.6-1) | + (0.2-0.6) | ++ (0.6-1) | − (<0.2) | − (<0.2) | ++ (0.6-1) | supported some commensals from the taxa Bacteroidetes and Firmicutes | ++ (0.6-1) | − (<0.2) | − (<0.2) | – |
| C[C@H](O)[C@@H](O)[C@@H](O)[C@H](O)C=O [L-fucose] | +++ (>1) | + (0.2-0.6) | + (0.2-0.6) | − (<0.2) | − (<0.2) | − (<0.2) | supported some commensals from the taxa Bacteroidetes and Firmicutes | ++ (0.6-1) | − (<0.2) | − (<0.2) | – |
| OC[C@@H](O)[C@@H](O)[C@H](O)[C@H](O)CO [D-mannitol] | − (<0.2) | − (<0.2) | − (<0.2) | − (<0.2) | − (<0.2) | + (0.2-0.6) | supported growth of CSC.32 alone among the panel of 10 commensals | – | – | − (<0.2) | – |
| O=C[C@@H](O)[C@@H](O)[C@H](O)[C@H](O)CO [D-mannose] | +++ (>1) | +++ (>1) | +++ (>1) | +++ (>1) | − (<0.2) | + (0.2-0.6) | supported some commensals from the taxa Bacteroidetes and Firmicutes | ++ (0.6-1) | − (<0.2) | − (<0.2) | – |
| O=C[C@H](O)[C@H](O)[C@H](O)CO [ribose] | − (<0.2) | + (0.2-0.6) | − (<0.2) | +++ (>1) | − (<0.2) | +++ (>1) | supported some commensals from the taxa Bacteroidetes and Firmicutes | − (<0.2) | +++ (>1) | − (<0.2) | – |
| O=C[C@H](O)[C@@H](O)[C@H](O)CO [D-xylose] | +++ (>1) | ++ (0.6-1) | +++ (>1) | + (0.2-0.6) | ++ (0.6-1) | − (<0.2) | supported some commensals from the taxa Bacteroidetes and Bifidobacteria | − (<0.2) | − (<0.2) | ++ (0.6-1) | – |
| OC[C@H]1O[C@H](O[C@H]2[C@H](O)[C@@H](O)[C@H](O)O[C@@H]2CO)[C@H](O)[C@@H](O)[C@@H]1O [D (+) maltose] | + (0.2-0.6) | ++ (0.6-1) | +++ (>1) | ++ (0.6-1) | +++ (>1) | − (<0.2) | supported some commensals from the taxa Bacteroidetes, Firmicutes, including Lachnospiraceae, and Bifidobacteria | – | +++ (>1) | +++ (>1) | – |
| OC[C@H]1O[C@H](O[C@]2(CCl)O[C@H](CCl)[C@@H](O)[C@@H]2O)[C@H](O)[C@@H](O)[C@H]1Cl [sucralose] | – | – | – | – | – | – | supported growth of PCO.72 alone among the panel of 10 commensals | – | – | – | – |
| O=C[C@H](O)[C@@H](O)[C@@H](O)CO [L-arabinose] | +++ (>1) | ++ (0.6-1) | +++ (>1) | − (<0.2) | ++ (0.6-1) | − (<0.2) | supported some commensals from the taxa Bacteroidetes, Firmicutes, including Lachnospiraceae, and Bifidobacteria | – | +++ (>1) | ++ (0.6-1) | − (<0.2) |
| OC[C@@H](O)[C@@H](O)[C@H](O)[C@@H](O)CO [D-sorbitol] | – | – | – | – | – | – | supported growth of CSC.32 alone among the panel of 10 commensals | – | – | – | – |
| OC[C@H]1O[C@@](CO)(O[C@H]2O[C@H](CO)[C@@H](O)[C@H](O)[C@H]2O)[C@@H](O)[C@@H]1O [sucrose] | – | – | – | – | – | – | supported some commensals from the taxa Bacteroidetes, Firmicutes, including Lachnospiraceae, and Bifidobacteria | – | – | – | – |
